Drawing on article PMC9544403, “Schwarzinicine A inhibits transient receptor potential canonical channels and exhibits overt vasorelaxation effects” (Phytotherapy Research, 2022), this text covers IC50 for one compound.

Type in all cases: cell-based
For assay [1], the target named is T1, hTRPC3 (Homo sapiens, UniProt Q13507).
T1 construct: gene TRPC3
T1 sequence (Q13507 1-921): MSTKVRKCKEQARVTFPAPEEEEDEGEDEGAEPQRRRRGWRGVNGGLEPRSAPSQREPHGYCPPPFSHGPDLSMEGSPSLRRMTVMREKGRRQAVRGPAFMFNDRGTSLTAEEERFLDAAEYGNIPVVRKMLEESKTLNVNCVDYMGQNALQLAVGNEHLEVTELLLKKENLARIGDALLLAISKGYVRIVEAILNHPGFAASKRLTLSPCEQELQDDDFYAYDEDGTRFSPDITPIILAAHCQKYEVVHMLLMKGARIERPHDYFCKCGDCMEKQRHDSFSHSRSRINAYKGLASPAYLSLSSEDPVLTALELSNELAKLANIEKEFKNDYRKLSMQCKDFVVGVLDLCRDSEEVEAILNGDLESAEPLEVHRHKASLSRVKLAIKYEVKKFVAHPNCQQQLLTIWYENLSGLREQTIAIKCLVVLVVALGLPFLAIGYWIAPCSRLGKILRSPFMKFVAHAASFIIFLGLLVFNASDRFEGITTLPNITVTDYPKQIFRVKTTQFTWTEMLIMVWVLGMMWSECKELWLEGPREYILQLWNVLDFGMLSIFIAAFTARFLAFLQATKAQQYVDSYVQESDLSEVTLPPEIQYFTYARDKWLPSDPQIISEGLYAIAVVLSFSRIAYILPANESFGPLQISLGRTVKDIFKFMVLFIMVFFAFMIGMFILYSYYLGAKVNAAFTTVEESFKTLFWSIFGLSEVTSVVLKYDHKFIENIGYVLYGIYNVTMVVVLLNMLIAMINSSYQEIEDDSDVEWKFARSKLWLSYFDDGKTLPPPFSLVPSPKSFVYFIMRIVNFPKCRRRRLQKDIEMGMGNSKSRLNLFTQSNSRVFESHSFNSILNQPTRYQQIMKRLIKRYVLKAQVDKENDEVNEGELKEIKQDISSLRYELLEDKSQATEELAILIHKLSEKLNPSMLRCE
Nature of the assay: fura-2 intracellular calcium assay, OAG-activated hTRPC3 overexpressed in HEK T-REx cells. A general note: A change in cytosolic calcium serves as a functional read-out for many receptors and channels.

For assay [2], the target named is T2, hTRPC4 (Homo sapiens, UniProt Q9UBN4).
T2 construct: gene TRPC4
T2 sequence (Q9UBN4 1-977): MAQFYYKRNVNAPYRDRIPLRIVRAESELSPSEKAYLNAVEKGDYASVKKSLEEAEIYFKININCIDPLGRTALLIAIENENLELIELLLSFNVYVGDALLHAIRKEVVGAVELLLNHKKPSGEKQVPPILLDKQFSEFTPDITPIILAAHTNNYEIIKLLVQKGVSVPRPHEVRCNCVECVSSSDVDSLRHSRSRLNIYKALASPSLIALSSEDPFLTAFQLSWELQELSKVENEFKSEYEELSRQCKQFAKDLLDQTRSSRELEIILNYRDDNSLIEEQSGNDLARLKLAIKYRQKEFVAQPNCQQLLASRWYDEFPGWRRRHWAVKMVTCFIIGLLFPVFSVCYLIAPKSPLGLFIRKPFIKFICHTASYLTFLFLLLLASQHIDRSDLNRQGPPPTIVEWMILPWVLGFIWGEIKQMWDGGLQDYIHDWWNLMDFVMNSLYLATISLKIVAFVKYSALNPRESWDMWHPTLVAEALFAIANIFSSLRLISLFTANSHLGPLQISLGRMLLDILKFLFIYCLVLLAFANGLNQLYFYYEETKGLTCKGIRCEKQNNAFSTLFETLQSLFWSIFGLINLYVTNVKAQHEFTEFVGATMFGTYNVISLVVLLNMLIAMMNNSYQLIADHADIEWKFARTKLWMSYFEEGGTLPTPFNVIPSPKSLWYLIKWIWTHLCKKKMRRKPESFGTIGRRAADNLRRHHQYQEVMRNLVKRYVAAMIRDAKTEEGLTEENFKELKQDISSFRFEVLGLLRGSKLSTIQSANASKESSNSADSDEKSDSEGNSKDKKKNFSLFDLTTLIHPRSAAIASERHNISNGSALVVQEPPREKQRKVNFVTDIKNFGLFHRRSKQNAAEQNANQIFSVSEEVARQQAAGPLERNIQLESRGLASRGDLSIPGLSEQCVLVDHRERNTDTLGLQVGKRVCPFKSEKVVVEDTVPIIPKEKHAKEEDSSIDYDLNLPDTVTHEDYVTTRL
The assay can be described thus: fura-2 intracellular calcium assay, S1P-activated hTRPC4 overexpressed in HEK T-REx cells.

For assay [3], the target named is T3, hTRPC5 (Homo sapiens, UniProt Q9UL62).
T3 construct: gene TRPC5
T3 sequence (Q9UL62 1-973): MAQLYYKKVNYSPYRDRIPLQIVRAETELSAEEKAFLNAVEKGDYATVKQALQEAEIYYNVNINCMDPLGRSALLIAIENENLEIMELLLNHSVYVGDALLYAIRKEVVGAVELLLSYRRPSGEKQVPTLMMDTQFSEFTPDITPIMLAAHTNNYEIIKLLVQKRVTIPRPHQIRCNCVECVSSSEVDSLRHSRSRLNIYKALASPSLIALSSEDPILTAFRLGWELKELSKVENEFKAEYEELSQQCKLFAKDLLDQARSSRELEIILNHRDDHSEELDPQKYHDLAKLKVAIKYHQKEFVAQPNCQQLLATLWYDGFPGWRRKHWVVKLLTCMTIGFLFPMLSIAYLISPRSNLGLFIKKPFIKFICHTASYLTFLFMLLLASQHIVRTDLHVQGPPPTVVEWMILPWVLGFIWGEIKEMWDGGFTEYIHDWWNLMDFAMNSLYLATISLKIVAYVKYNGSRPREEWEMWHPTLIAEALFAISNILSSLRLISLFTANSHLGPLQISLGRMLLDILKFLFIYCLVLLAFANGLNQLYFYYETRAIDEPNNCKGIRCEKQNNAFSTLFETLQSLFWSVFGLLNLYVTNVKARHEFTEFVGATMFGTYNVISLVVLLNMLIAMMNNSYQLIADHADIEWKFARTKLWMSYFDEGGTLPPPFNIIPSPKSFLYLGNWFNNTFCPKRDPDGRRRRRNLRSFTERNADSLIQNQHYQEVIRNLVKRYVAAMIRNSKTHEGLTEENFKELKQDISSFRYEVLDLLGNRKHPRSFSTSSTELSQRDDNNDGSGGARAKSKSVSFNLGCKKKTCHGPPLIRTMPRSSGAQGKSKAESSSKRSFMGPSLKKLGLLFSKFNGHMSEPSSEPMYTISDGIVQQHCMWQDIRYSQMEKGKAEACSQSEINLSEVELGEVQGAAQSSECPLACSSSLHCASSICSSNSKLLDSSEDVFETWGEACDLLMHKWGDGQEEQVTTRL
The assay can be described thus: fura-2 intracellular calcium assay, S1P-activated hTRPC5 overexpressed in HEK T-REx cells. From the text:
fura-2 intracellular calcium assay, S1P-activated hTRPC5 overexpressed in HEK T-REx cells on hTRPC5 | S1P‐evoked calcium influx mediated by hTRPC4 and hTRPC5 were inhibited by schwarzinicine A

Assay [4] concerns the target T4, hTRPC6 (Homo sapiens, UniProt Q9Y210).
T4 construct: gene TRPC6
T4 sequence (Q9Y210 1-931): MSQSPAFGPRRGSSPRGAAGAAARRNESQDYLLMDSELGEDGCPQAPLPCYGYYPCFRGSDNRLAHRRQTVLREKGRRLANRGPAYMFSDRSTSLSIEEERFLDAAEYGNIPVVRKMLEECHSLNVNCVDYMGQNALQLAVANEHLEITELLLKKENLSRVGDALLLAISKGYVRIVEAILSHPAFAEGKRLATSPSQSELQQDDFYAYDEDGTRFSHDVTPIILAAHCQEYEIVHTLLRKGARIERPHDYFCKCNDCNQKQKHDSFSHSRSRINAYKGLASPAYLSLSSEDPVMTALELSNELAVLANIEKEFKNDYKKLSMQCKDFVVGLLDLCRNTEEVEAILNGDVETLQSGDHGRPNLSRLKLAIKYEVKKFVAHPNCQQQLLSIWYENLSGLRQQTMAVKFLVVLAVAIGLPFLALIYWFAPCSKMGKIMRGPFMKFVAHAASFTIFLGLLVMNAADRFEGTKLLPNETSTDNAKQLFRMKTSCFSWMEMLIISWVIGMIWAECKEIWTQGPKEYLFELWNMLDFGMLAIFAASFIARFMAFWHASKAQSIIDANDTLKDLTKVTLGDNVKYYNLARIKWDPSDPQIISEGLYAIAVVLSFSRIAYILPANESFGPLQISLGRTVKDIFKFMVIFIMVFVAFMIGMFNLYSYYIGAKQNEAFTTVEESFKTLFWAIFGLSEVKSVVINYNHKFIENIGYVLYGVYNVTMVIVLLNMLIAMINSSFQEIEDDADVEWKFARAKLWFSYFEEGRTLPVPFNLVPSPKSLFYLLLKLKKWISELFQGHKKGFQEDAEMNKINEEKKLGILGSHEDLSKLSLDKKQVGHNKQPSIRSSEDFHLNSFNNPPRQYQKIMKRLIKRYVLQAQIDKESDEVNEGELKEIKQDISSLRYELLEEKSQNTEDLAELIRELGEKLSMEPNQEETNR
Nature of the assay: fura-2 intracellular calcium assay, OAG-activated hTRPC6 transfected in HEK […] cells.

Take `COc1ccc(CCNC(CCc2ccc(OC)c(OC)c2)Cc2ccc(OC)c(OC)c2)cc1OC` (racemic) [schwarzinicine A, N‐(3,4‐dimethoxyphenethyl)‐1,4‐bis(3,4‐dimethoxyphenyl)butan‐2‐amine]: the IC50 – broadly, the concentration needed to halve the response being measured – in assay [1] was determined as 3 µM; in assay [2], 17 µM; in assay [3] it was 19 µM; in assay [4] it was 7 µM.
